Results reported in patent publication US5274141A, “Designed quinone- and hydroquinone-containing cyclic enediyneols and enediyneones having DNA cleaving and cytotoxic properties” (The Scripps Research Institute, priority 1992, dated 1993).
pIC50: −log10 of the molar value. Where two headings read alike, the source gives them in different places.

Experiments:
[1] = system: Normal Human Dermal Fibroblast (NHDF); assay: Sulforhodamine B cytotoxicity assay, NHDF; assay type: cell-based; conditions: for toxicity to NHDF cells compared: compared with well known anticancer drugs
Text: (§1) In addition to the DNA cleavage screening already discussed, several of the before-described compounds were screened against a panel of twelve cancerous cell lines as target cells and four "normal" cell preparations. This screening utilized a sulforhodamine B cytotoxicity assay as discussed below.
(§2) SULFORHODAMINE B CYTOTOXICITY ASSAY
(§3) 1. Preparation of target cells in 96-well plates
(§4) 2. Preparation of sample drugs and toxic control
(§5) 3. Addition of Sample Drugs, Compounds and Controls to 96-well Plates
(§6) f. Incubate (37° C., 5-10 percent CO2 in humidified incubator) plates for a total of 72 hours. Check plates at 24 hour intervals microscopically for signs of cytotoxicity.
(§7) IC50 values; i.e., the concentration of Compound required to kill one-half of the treated cells, where then calculated.
(§8) The cell lines assayed are listed below along with their respective sources:
(§9) Separate control studies were also carried out using the following well known anticancer drugs with the following IC50 values for NHDF and cancer cells.

[2] = system: Human Mammary Epithelial Cells (HMEC); assay: Sulforhodamine B cytotoxicity assay, HMEC; assay type: cell-based; conditions: normal, 72 hours
Text: as §1, §2, §3, §4, §5, §6, §7
(§10) The cell lines assayed are listed below along with their respective sources: […]

[3] = system: Normal Human Epidermal Keratinocytes (NHEK); assay: Sulforhodamine B cytotoxicity assay, NHEK; assay type: cell-based; conditions: 72 hours
Text: as §1, §2, §3, §4, §5, §6, §7, §10

[4] = system: Chinese Hamster Ovary (CHO); assay: Sulforhodamine B cytotoxicity assay, CHO; assay type: cell-based; conditions: Cricetulus griseus, normal, 72 hours
Text: as §1, §2, §3, §4, §5, §6, §7, §10

SK-Mel-28 (Melanoma) = assay: Sulforhodamine B cytotoxicity assay, SK-Mel-28; assay type: cell-based; conditions: Homo sapiens, 72 hours
Text: as §1, §2, §3, §4, §5, §6, §7, §10

[5] = system: Capan-1 (Pancreatic Carcinoma); assay: Sulforhodamine B cytotoxicity assay, Capan-1; assay type: cell-based; conditions: Homo sapiens, 72 hours
Text: as §1, §2, §3, §4, §5, §6, §7, §10

H-322 (Lung Carcinoma) = assay: Sulforhodamine B cytotoxicity assay, H-322; assay type: cell-based; conditions: Homo sapiens, NCI-H322, 72 hours
Text: as §1, §2, §3, §4, §5, §6, §7, §10

[6] = system: UCLA P-3 (Lung Carcinoma); assay: Sulforhodamine B cytotoxicity assay, UCLA P-3; assay type: cell-based; conditions: Homo sapiens, 72 hours
Text: as §1, §2, §3, §4, §5, §6, §7, §10

MCF-7 (Breast Carcinoma) = assay: Sulforhodamine B cytotoxicity assay, MCF-7; assay type: cell-based; conditions: Homo sapiens, MCF7, 72 hours
Text: as §1, §2, §3, §4, §5, §6, §7, §10

[7] = system: Ovcar-3 (Ovarian Carcinoma); assay: Sulforhodamine B cytotoxicity assay, Ovcar-3; assay type: cell-based; conditions: Homo sapiens, 72 hours
Text: as §1, §2, §3, §4, §5, §6, §7, §10

HT-29 (Colon Carcinoma) = assay: Sulforhodamine B cytotoxicity assay, HT-29; assay type: cell-based; conditions: Homo sapiens, 72 hours
Text: as §1, §2, §3, §4, §5, §6, §7, §10

[8] = system: HL-60 (Promyeocytic Leukemia); assay: Sulforhodamine B cytotoxicity assay, HL-60; assay type: cell-based; conditions: Homo sapiens, 72 hours
Text: as §1, §2, §3, §4, §5, §6, §7, §10

Molt-4 (T-Cell Leukemia) = assay: Sulforhodamine B cytotoxicity assay, Molt-4; assay type: cell-based; conditions: Homo sapiens
Text: as §1, §2, §3, §4, §5, §6, §7, §10

P-388 (Mouse Leukemia) = assay: Sulforhodamine B cytotoxicity assay, P-388; assay type: cell-based; conditions: P388, 72 hours
Text: as §1, §2, §3, §4, §5, §6, §7, §10

φX174 form I DNA = assay: Cleavage of cell-free supercoiled DNA, agarose gel electrophoresis; assay type: biochemical; conditions: pH 7.4, 37° C., 15 hours
Description: FIG. 1 is a photograph of an ethidium bromide stained 1 percent agarose electrophoresis gel o that illustrates the cleavage of .phi.X174 form I DNA (100 μM base pairs) by Compounds 7, 8, 9, 10 and 12 at 50-5000 μM after 15 hours at 37° C. at a pH value of 7.4 in 50 […]. […] Lanes 2-10 correspond to the following: Lane 2: Compound 12 (100 μM); Lane 3: Compound 10 (100 μM); Lane 4: Compound 7 (100 μM); Lane 5: Compound 8 (100 μM); Lanes 6-10: Compound 9 (50, 100, 500, 1000 and 5000 μM). Forms I, II and III shown to the left of the photograph show the relative migrations of supercoiled (form I) relaxed (form II) and linear (form III) DNA, respectively.
To a vial containing 9 microliters of a cell-free .phi.X174 Type I double-stranded DNA in pH 7.4 […] Tris-HCl buffer was added 1 microliter of a 1.0 millimolar or other appropriate ethanol solution of Compounds 7, 8, 9, 10 and 12.
The vials were then placed in a 37° C. oven for 15 hours. A 2.0 microliter portion of glycerol loading buffer solution containing bromothymol blue indicator was added to each vial. A 10 microliter aliquot was then drawn from each. Gel electrophoresis analysis of the aliquots was performed using a 1.0 percent agarose gel with ethidium bromide run at 115 volts for one hour. DNA cleavage was indicated by the formation of Type II DNA, which was detected by visual inspection of the gel under 310 nanometer ultraviolet light.

[9] = Cycloaromatization studies using 1,4-cyclohexadiene in toluene; assay type: physicochemical
Text: These reactions provided Compounds 11-13 as shown schematically in Scheme 2, below. [drawing 9]

[10] = Stability observed during synthesis; assay type: physicochemical
Description: Finally, PCC oxidation (4.0 equivalents PCC, 4Å molecular sieves in CH2 Cl2 at 25° C. for 0.5 hour) of Compound 8 afforded the tricarbonyl Compound 10 in 49 percent yield as step i.

[11] = system: SIHA (Cervical Carcinoma); assay: Sulforhodamine B cytotoxicity assay, SIHA; assay type: cell-based; conditions: Homo sapiens, 72 hours
Text: as §1, §2, §3, §4, §5, §6, §7, §10

786-0 (Renal Carcinoma) = assay: Sulforhodamine B cytotoxicity assay, 786-0; assay type: cell-based; conditions: Homo sapiens, 72 hours
Text: as §1, §2, §3, §4, §5, §6, §7, §10

Cancer Cells = assay: cells; assay type: cell-based, human or mouse
Text: as §1, §2, §3, §4, §5, §6, §7, §8, §9

[12] = Homo sapiens, normal, 72 hours, read-out: IC50 Values
[13] = MOLT-4, 72 hours, read-out: IC50 Values
[14] = Molt-4 leukemia cells, read-out: IC50
[15] = 55° C., 1,4-cyclohexadiene in toluene
[16] = Homo sapiens, control anticancer drugs, read-out: Range of Average IC50 Values, NHDF
[17] = control anticancer drugs, read-out: Range of Average IC50 Values, NHDF
[18] = 110° C., 1,4-cyclohexadiene in toluene

Molecule | pIC50 [1, 12] | pIC50 [2] | pIC50 [3] | pIC50 [4] | pIC50 (SK-Mel-28 (Melanoma)) | pIC50 [5] | pIC50 (H-322 (Lung Carcinoma)) | pIC50 [6] | pIC50 (MCF-7 (Breast Carcinoma)) | pIC50 [7] | pIC50 (HT-29 (Colon Carcinoma)) | pIC50 [8] | pIC50 (Molt-4 (T-Cell Leukemia); [13]) | DNA cleaving activity (φX174 form I DNA) | also measured
CC1=C(C)C(=O)C2=C(C#CCCCC(O)C#C2)C1=O (centres unmarked) [Compound 8] | 5.51 | 5.51 | 5.51 | 5.49 | 5.20 | 5.51 | 4.89 | 5.20 | 5.20 | 5.20 | 5.20 | 5.11 | 7.00 | significant DNA damaging properties | toxicity to NHDF cells compared [1]: similarly toxic to the normal NHDF and cancer cells except Molt-4 cells; pIC50 (Molt-4 (T-Cell Leukemia); [14]): 6.30; pIC50 (P-388 (Mouse Leukemia)): 5.70; half life (t1/2) of cycloaromatization [9, 15]: 2.6 h; thermal stability [10]: thermally labile
CC1=C(C)C(=O)C2=C(C#CCCCC(=O)C#C2)C1=O [Compound 10] | 4.00 | 4.00 | 4.00 | 4.00 | 4.00 | 4.00 | 4.00 | 4.30 | 4.89 | 4.60 | 4.30 | 4.60 | 5.92 | significant DNA damaging properties | toxicity to NHDF cells compared [1]: less toxic than those well known anticancer drugs against the NHDF cells; pIC50 [11]: 4.89; pIC50 (786-0 (Renal Carcinoma)): 4.30; pIC50 (Molt-4 (T-Cell Leukemia); [14]): 6.00; potency in cytotoxicity studies (Cancer Cells; variety of cell lines, in words): most impressive results; half life (t1/2) of cycloaromatization [9, 15]: 0.533 h; reactivity in cycloaromatization studies ([9]; series 7-10): most reactive member of the series 7-10
CN(Cc1cnc2nc(N)nc(N)c2n1)c1ccc(C(=O)N[C@@H](CCC(=O)O)C(=O)O)cc1 [Methotrexate, reference compound] | – | – | – | – | – | – | – | – | – | – | – | – | – | – | pIC50 [1, 16]: 4.30
Calicheamicin [reference compound] | – | – | – | – | – | – | – | – | – | – | – | – | – | – | pIC50 [1, 17]: 8.60
Cc1c(C)c(OC(=O)C(C)(C)C)c2c(c1OC(=O)C(C)(C)C)C#CCCCC(O)C#C2 (centres unmarked) [Compound 7] | 4.00 | 4.00 | 4.60 | 4.00 | 4.00 | 4.89 | 4.00 | 4.89 | 4.30 | 4.89 | 4.89 | 4.00 | 4.00 | no DNA cleaving activity | pIC50 (P-388 (Mouse Leukemia)): 4.89; half life (t1/2) of cycloaromatization [9, 18]: 74 h; stability ([10]; ambient temperature): quite stable
N.N.[Cl][Pt][Cl] [Cis-Platin, reference compound] | – | – | – | – | – | – | – | – | – | – | – | – | – | – | pIC50 [1, 17]: 4.30
CC(=O)O[C@H]1C(=O)[C@@]2(C)[C@H]([C@H](OC(=O)c3ccccc3)[C@]3(O)C[C@H](OC(=O)[C@H](O)[C@@H](NC(=O)c4ccccc4)c4ccccc4)C(C)=C1C3(C)C)[C@]1(OC(C)=O)CO[C@@H]1C[C@@H]2O [Taxol, reference compound] | – | – | – | – | – | – | – | – | – | – | – | – | – | – | pIC50 [1, 16]: 8.00
Cc1c(C)c(O)c2c(c1O)C#CCCCC(O)C#C2 (centres unmarked) [Compound 9] | 4.60 | 4.60 | 4.89 | 4.89 | 4.60 | 4.89 | 4.60 | 4.60 | 4.60 | 4.60 | 4.60 | 5.80 | 4.30 | significant DNA damaging properties | pIC50 (P-388 (Mouse Leukemia)): 5.51; cycloaromatization behaviour [9, 18]: complicated kinetics due to ease of conversion to Compound 8 even under oxygen extrusion conditions, but seems quite stable prior to oxidation; air sensitivity [10]: air-sensitive; stability ([10]; neutral conditions): relatively stable
CC1=C(C)C(=O)c2cc3c(cc2C1=O)CCCC3O (centres unmarked) [Compound 12] | – | – | – | – | – | – | – | – | – | – | – | – | – | minor activity | –
N[C@@H](Cc1ccc(N(CCCl)CCCl)cc1)C(=O)O [Melphelan, reference compound] | – | – | – | – | – | – | – | – | – | – | – | – | – | – | pIC50 ([1]; Homo sapiens, read-out: Range of Average IC50 Values, NHDF): 4.00
COC1=C(C(=O)O)[C@H](C)[C@@]23O[C@]24c2cc(O)c5c(c2N[C@H]3C#C/C=C\C#C[C@H]14)C(=O)c1c(O)ccc(O)c1C5=O [Dynemicin A, reference compound] | – | – | – | – | – | – | – | – | – | – | – | – | – | – | pIC50 [1, 17]: 8.00
COc1cccc2c1C(=O)c1c(O)c3c(c(O)c1C2=O)C[C@@](O)(C(=O)CO)C[C@@H]3O[C@H]1C[C@H](N)[C@H](O)[C@H](C)O1 [Doxorubicin, reference compound] | – | – | – | – | – | – | – | – | – | – | – | – | – | – | pIC50 (Cancer Cells; control anticancer drugs, cancer cells, read-out: Range of Average IC50 Values, Cancer Cells): 7.01 to 9.80
